For one assay, the target named is p38a/MK2 (Homo sapiens (Human), UniProt P49137+Q16539). As to the kind of experiment: biochemical. Conditions: 10-point 1:3 dilution, top dose 1 μM; 10 μM ATP, 2 h incubation; read-out: p38a/MK2 (1 μM) Enzyme pIC50 (converted). Here is the method:
(§1) Expression vectors of the recombinant MK2 and PRAK kinases were constructed by cloning of the codon optimized gene sequences of MK2 (Uniprot ID P49137, amino acid fragment F46-H400), or PRAK (Uniprot ID Q81W41, amino acid fragment M1-Q471) into pGEX-4T1 (GE) for over expression of these kinases with N-terminal GST-tag. Protein expression was carried out in E. coli BL21 by growing the hosts in TB medium, induction of protein expression with 0.5 mM IPTG at approximate 0.8 OD600, and incubation of the cultures at 18° C. for 14-20 hours afterwards. The harvested cells were resuspended in […] of Lysis buffer (50 mM Tris-HCl, pH 8.0, 500 mM NaCl, 1 mM DTT, 5% glycerol, and 1 mM PMSF) per gram of wet cell mass and homogenized at 4° C. in a microfluidizer (ATS, Suzhou, China) at 14,000 psi pressure, 3 passes. The cell lysates were clarified by centrifugation and the supernatants containing the GST-fusion proteins were purified by affinity chromatography using GSH-Sepharose (GE) gravity flow columns pre-equilibrated in Buffer A (50 mM Tris-HCl, pH 8.0, 500 mM NaCl, 1 mM DTT, and 5% glycerol). After thorough washing of the columns with Buffer A, the bound GST-proteins were eluted by Buffer B (50 mM Tris, pH 8.0, 500 mM NaCl, 1 mM DTT, 5% glycerol, 10 mM glutathione), followed by size-exclusion purification on Superdex 200 column equilibrated in Buffer A. The purified proteins were concentrated to approximately 1 mg/ml and stored at −80° C.
(§2) This study evaluates the inhibitory potency of invention compound on p38/MK2 pathway vs p38/PRAK pathway. More specially the compound concentration (IC50) was determined that inhibited half of the maximal activation of MK2 or PRAK by p38. MK2 activation study was set up without or with a serial of 10-point 1:3 dilution of invention compound at top dose of 1 or 10 μM, and PRAK activation study was set up without or with a serial of 10-point 1:3 dilution of invention compound at top dose of 300 μM. The MIK2 and PRAK activity were determined by the phosphorylation level of HSP27 peptide conjugated with FITC.

The target in a further assay is p38a/PRAK (Homo sapiens (Human), UniProt Q16539). As to the kind of experiment: biochemical. To be noted: 10-point 1:3 dilution, top dose 300 μM; 10 μM ATP, 2 h incubation; read-out: p38a/PRAK Enzyme pIC50 (converted). As for the experimental part: as §1, §2
p38a/PRAK, sequence (Q16539 whole entry): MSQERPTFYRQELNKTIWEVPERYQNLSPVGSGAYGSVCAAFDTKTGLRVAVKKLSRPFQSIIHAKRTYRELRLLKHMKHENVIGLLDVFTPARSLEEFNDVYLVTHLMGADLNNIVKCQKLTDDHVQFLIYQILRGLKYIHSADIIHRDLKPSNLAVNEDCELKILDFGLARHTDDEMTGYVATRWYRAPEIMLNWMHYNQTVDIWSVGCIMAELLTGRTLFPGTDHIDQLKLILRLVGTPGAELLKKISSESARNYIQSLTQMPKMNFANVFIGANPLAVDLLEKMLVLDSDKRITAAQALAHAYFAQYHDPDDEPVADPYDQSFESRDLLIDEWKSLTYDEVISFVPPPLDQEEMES

p38a/MK2, sequence (Q16539 whole entry, the tested form may be a part): as the sequence (Q16539 whole entry) above
p38a/MK2, sequence (P49137 46-400): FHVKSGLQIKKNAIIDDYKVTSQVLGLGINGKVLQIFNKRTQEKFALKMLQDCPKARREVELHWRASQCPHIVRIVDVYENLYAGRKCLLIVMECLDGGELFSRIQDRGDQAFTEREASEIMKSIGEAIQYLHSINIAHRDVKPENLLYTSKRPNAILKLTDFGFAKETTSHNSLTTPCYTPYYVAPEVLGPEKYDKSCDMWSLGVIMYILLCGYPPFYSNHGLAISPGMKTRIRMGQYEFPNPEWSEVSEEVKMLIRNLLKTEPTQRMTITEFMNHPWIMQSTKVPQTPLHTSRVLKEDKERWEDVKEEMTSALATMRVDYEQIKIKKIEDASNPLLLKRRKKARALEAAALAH

Regarding `[2H]C([2H])(Oc1cc(C)n(-c2cc(-n3cccc(C(C)(C)O)c3=O)ncc2C)c(=O)c1Cl)c1ncc(F)cc1Cl` (single isomer, unassigned) [Example 23B, rel-4′-{3-chloro-4-[(3-chloro-5-fluoropyridin-2-yl)(2H2)methoxy]-6-methyl-2-oxopyridin-1-yl}-3-(2-hydroxypropan-2-yl)-5′-methyl-[1,2′-bipyridin]-2-one], the figures for the IC50 on p38a/MK2 and at p38a/PRAK were more than 100 nM and more than 316000 nM, respectively. The like results for `Cc1cnc(-n2ccnc(C(C)(C)O)c2=O)cc1-n1c(C)cc(OCc2ncc(F)cc2Cl)c(Cl)c1=O` (single isomer, unassigned) [Example 24B, rel-3-chloro-4-[(3-chloro-5-fluoropyridin-2-yl)methoxy]-2′-[3-(2-hydroxypropan-2-yl)-2-oxopyrazin-1-yl]-5′,6-dimethyl-[1,4′-bipyridin]-2-one] were, in that order, 2.51 nM and 5010 nM. In the case of `Cc1cnc(-n2cc(C(C)(C)O)ccc2=O)cc1-n1c(C)cc(OCc2ncc(F)cc2F)c(Cl)c1=O` (single isomer, unassigned) [Example 13A, rel-3-chloro-4-[(3,5-difluoropyridin-2-yl)methoxy]-2′-[5-(2-hydroxypropan-2-yl)-2-oxopyridin-1-yl]-5′,6-dimethyl-[1,4′-bipyridin]-2-one], the figures for the IC50 on p38a/MK2 and on p38a/PRAK were more than 1000 nM and more than 316000 nM, respectively.

Consider `[2H]C([2H])(Oc1cc(C)n(-c2cc(-n3cccc(C(C)(C)O)c3=O)ncc2C)c(=O)c1Cl)c1ncc(Cl)cc1F` (single isomer, unassigned) [Example 21A, rel-3-chloro-4-[(5-chloro-3-fluoropyridin-2-yl)(2H2)methoxy]-2′-[3-(2-hydroxypropan-2-yl)-2-oxopyridin-1-yl]-5′,6-dimethyl-[1,4′-bipyridin]-2-one], for which the IC50 was 1.26 nM on p38a/MK2 and 5010 nM at p38a/PRAK. `Cc1cnc(-n2cccc(C3CCOCC3)c2=O)cc1-n1c(C)cc(OCc2ncc(F)cc2F)c(Cl)c1=O` (single isomer, unassigned) [Example 8B, rel-3-chloro-4-[(3,5-difluoropyridin-2-yl)methoxy]-5′,6-dimethyl-2′-[3-(oxan-4-yl)-2-oxopyridin-1-yl]-[1,4′-bipyridin]-2-one]: the IC50 is more than 1000 nM at p38a/MK2 and more than 316000 nM at p38a/PRAK. Taken in the same sequence, the figures for `COCc1cc(OCc2ncc(F)cc2F)c(Cl)c(=O)n1-c1cc(-n2cccc(C(C)(C)O)c2=O)ncc1C` (single isomer, unassigned) [Example 3B, rel-3-chloro-4-[(3,5-difluoropyridin-2-yl)methoxy]-2′-[3-(2-hydroxypropan-2-yl)-2-oxopyridin-1-yl]-6-(methoxymethyl)-5′-methyl-[1,4′-bipyridin]-2-one] were more than 1000 nM and more than 316000 nM.

As to `[2H]C([2H])(Oc1cc(C)n(-c2cc(-n3cccc(C(C)(C)O)c3=O)ncc2C)c(=O)c1Cl)c1ncc(F)cc1F` (single isomer, unassigned) [Example 18A, rel-3″-chloro-4″-((3,5-difluoropyridin-2-yl)methoxy-d2)-3-(2-hydroxypropan-2-yl)-5′,6″-dimethyl-2H,2″H-[1,2′:4′,1″-terpyridine]-2,2″-dione], the IC50 at p38a/MK2 was 1.58 nM; on p38a/PRAK, 3160 nM. `[2H]C([2H])(Oc1cc(C)n(-c2cc(-n3cccc(C(C)(C)O)c3=O)ncc2C)c(=O)c1Cl)c1ncc(Cl)cc1F` (single isomer, unassigned) [Example 21B, rel-3-chloro-4-[(5-chloro-3-fluoropyridin-2-yl)(2H2)methoxy]-2′-[3-(2-hydroxypropan-2-yl)-2-oxopyridin-1-yl]-5′,6-dimethyl-[1,4′-bipyridin]-2-one]: the values for the IC50 on p38a/MK2 and at p38a/PRAK were more than 1000 nM and more than 316000 nM, respectively. The like results for `Cc1cnc(-n2cncc(C(C)(C)O)c2=O)cc1-n1c(C)cc(OCc2ncc(F)cc2F)c(Cl)c1=O` (single isomer, unassigned) [Example 10A, rel-3-chloro-4-[(3,5-difluoropyridin-2-yl)methoxy]-2′-[5-(2-hydroxypropan-2-yl)-6-oxopyrimidin-1-yl]-5′,6-dimethyl-[1,4′-bipyridin]-2-one] were, in that order, 100 nM and 3980 nM. As to `[2H]C([2H])(Oc1cc(C)n(-c2cc(-n3ccnc(C(C)(C)O)c3=O)ncc2C)c(=O)c1Cl)c1ncc(F)cc1F` (single isomer, unassigned) [Example 19B, rel-3-chloro-4-((3,5-difluoropyridin-2-yl)methoxy-d2)-2′-(3-(2-hydroxypropan-2-yl)-2-oxopyrazin-1(2H)-yl)-5′,6-dimethyl-2H-[1,4′-bipyridin]-2-one], the IC50 was 794 nM at p38a/MK2 and more than 316000 nM at p38a/PRAK. Consider `[2H]C([2H])(Oc1cc(C)n(-c2cc(-n3ccnc(C(C)(C)O)c3=O)ncc2C)c(=O)c1Cl)c1ncc(F)cc1Cl` (single isomer, unassigned) [Example 22A, rel-3-chloro-4-((3-chloro-5-fluoropyridin-2-yl)methoxy-d2)-2′-(3-(2-hydroxypropan-2-yl)-2-oxopyrazin-1(2H)-yl)-5′,6-dimethyl-2H-[1,4′-bipyridin]-2-one], for which the IC50 at p38a/MK2 was 2 nM; on p38a/PRAK it was 3980 nM. Take `Cc1cnc(-n2ccc(C)c(C(C)(C)O)c2=O)cc1-n1c(C)cc(OCc2ncc(F)cc2F)c(Cl)c1=O` (single isomer, unassigned) [Example 15A, rel-3-chloro-4-[(3,5-difluoropyridin-2-yl)methoxy]-2′-[3-(2-hydroxypropan-2-yl)-4-methyl-2-oxopyridin-1-yl]-5′,6-dimethyl-[1,4′-bipyridin]-2-one]: the IC50 at p38a/MK2 is 10 nM; at p38a/PRAK, 2510 nM. The like results for `Cc1cnc(-n2ccc(C)c(C(C)(C)O)c2=O)cc1-n1c(C)cc(OCc2ncc(F)cc2F)c(Cl)c1=O` (single isomer, unassigned) [Example 15B, rel-3-chloro-4-[(3,5-difluoropyridin-2-yl)methoxy]-2′-[3-(2-hydroxypropan-2-yl)-4-methyl-2-oxopyridin-1-yl]-5′,6-dimethyl-[1,4′-bipyridin]-2-one] were, in that order, more than 1000 nM and more than 316000 nM. The like results for `Cc1ncc(-n2cccc(C(C)(C)O)c2=O)cc1-n1c(C)cc(OCc2ncc(F)cc2F)c(Cl)c1=O` (single isomer, unassigned) [Example 16A, rel-5′-{3-chloro-4-[(3,5-difluoropyridin-2-yl)methoxy]-6-methyl-2-oxopyridin-1-yl}-3-(2-hydroxypropan-2-yl)-6′-methyl-[1,3′-bipyridin]-2-one] were, in that order, 200 nM and 7940 nM. The like results for `Cc1ncc(-n2cccc(C(C)(C)O)c2=O)cc1-n1c(C)cc(OCc2ncc(F)cc2F)c(Cl)c1=O` (single isomer, unassigned) [Example 16B, rel-5′-{3-chloro-4-[(3,5-difluoropyridin-2-yl)methoxy]-6-methyl-2-oxopyridin-1-yl}-3-(2-hydroxypropan-2-yl)-6′-methyl-[1,3′-bipyridin]-2-one] were, in that order, more than 1000 nM and more than 316000 nM. For `Cc1cnc(-n2cccc(C(C)C)c2=O)cc1-n1c(C)cc(OCc2ncc(F)cc2F)c(Cl)c1=O` (single isomer, unassigned) [Example 17B, rel-3-chloro-4-[(3,5-difluoropyridin-2-yl)methoxy]-2′-(3-isopropyl-2-oxopyridin-1-yl)-5′,6-dimethyl-[1,4′-bipyridin]-2-one], the values for the IC50 on p38a/MK2 and on p38a/PRAK were more than 1000 nM and more than 316000 nM, respectively. Taken in the same sequence, the figures for `Cc1cnc(-n2ccnc(C(C)(C)O)c2=O)cc1-n1c(C)cc(OCc2ncc(F)cc2F)c(Cl)c1=O` (single isomer, unassigned) [Example 5A, rel-3-chloro-4-[(3,5-difluoropyridin-2-yl)methoxy]-2′-[3-(2-hydroxypropan-2-yl)-2-oxopyrazin-1-yl]-5′,6-dimethyl-[1,4′-bipyridin]-2-one] were 2.51 nM and 2510 nM. As to `Cc1cnc(-n2cc(C(C)(C)O)ccc2=O)cc1-n1c(C)cc(OCc2ncc(F)cc2F)c(Cl)c1=O` (single isomer, unassigned) [Example 13B, rel-3-chloro-4-[(3,5-difluoropyridin-2-yl)methoxy]-2′-[5-(2-hydroxypropan-2-yl)-2-oxopyridin-1-yl]-5′,6-dimethyl-[1,4′-bipyridin]-2-one], the IC50 at p38a/PRAK is 15800 nM.

These data come from US11685719B2, “Pyridinone MK2 inhibitors and uses thereof” (Xinthera, Inc., priority 2021, dated 2023).
